The subject of one test is MOLM14 cells. The experiment in a line: Proliferation assay B (spheroid assay) MOLM14. It is filed as cell-based, human. Conditions: Homo sapiens, MOLM-14, 192 h, confluence at day 8, read-out: (3b) Spheroid assay MOLM14 (IC50(μM)) Assay B. As for the experimental part: 3b) Proliferation Assay B
(§1) The anti-proliferative effect of menin/MLL protein/protein interaction inhibitor test compounds was assessed in human leukemia cell lines. The cell lines MV-4-11 and MOLM14 harbor MLL translocations and express the MLL fusion proteins MLL-AF4 and MLL-AF9, respectively, as well as the wildtype protein from the second allele. […] K562 was used as a control cell line containing two MLL wildtype alleles in order to exclude compounds that display general cytotoxic effects.
(§2) MV-4-11 and MOLM14 were cultured in RPMI-1640 (Sigma Aldrich) supplemented with 10% fetal bovine serum (HyClone), 2 mM L-glutamine (Sigma Aldrich) and 50 μg/ml gentamycin (Gibco). K562 were propagated in RPMI-1640 (Sigma Aldrich) supplemented with 20% fetal bovine serum (HyClone), 2 mM L-glutamine (Sigma Aldrich) and 50 μg/ml gentamycin (Gibco).
(§3) In order to assess the anti-proliferative effects, 1,500 MV-4-11, 300 MOLM14 cells or 750 K562 cells were seeded in 200 μl media per well in 96-well round bottom, ultra-low attachment plates (Costar, catalogue number 7007). Cell seeding numbers were chosen based on growth curves to ensure linear growth throughout the experiment. Test compounds were added at different concentrations and the DMSO content was normalized to 0.3%. Cells were incubated for 8 d at 37° C. and 5% CO2. Spheroid like growth was measured in real-time by live-cell imaging (IncuCyteZOOM, Essenbio, 4× objective) acquiring images at day 8. Confluence (%) as a measure of spheroid size was determined using an integrated analysis tool.
In order to determine the effect of the test compounds over time, the confluence in each well as a measure of spheroid size, was calculated. Confluence […] at the beginning of the experiment (t=0) was used as baseline for the calculation.
Absolute IC50 values were calculated as percent change in confluence as follows:
LC=Low Control: cells treated with 1 μM of the cytotoxic agent staurosporin
HC=High Control: Mean confluence (%) (DMSO treated cells)
Effect=100−(100*(Sample−LC)/(HC−LC))
To determine the IC50 a curve is fitted to the plot of % Effect vs Log 10 compound concentration using a sigmoidal fit with a variable slope and fixing the maximum to 100% and the minimum to 0%.
By IC50 is commonly meant the midpoint of a concentration-inhibition curve. In the case of `CN1CCN(Cc2cc(NC3CC4(CCN(c5ncnc6sc(CC(F)(F)F)cc56)C4)C3)ccc2C#N)CC1` (mixture of isomers) [Compound 225], the IC50 was determined as 1.95 µM. On to `CNC(=O)c1ccc(NC2CC3(CCN(c4ncnc5sc(CC(F)(F)F)cc45)C3)C2)cc1NCCN(C)C` (mixture of isomers) [Compound 239], for which the IC50 was greater than 3.75 µM. Same read-out and setting: under `CN1CCN(c2cc(NC3CC4(CCN(c5ncnc6sc(CC(F)(F)F)cc56)C4)C3)ccc2C#N)CC1` (mixture of isomers) [Compound 240] stands 1.14 µM. On the same count and under the same terms, under `CNC(=O)c1ccc(NC2CC3(CCN(c4ncnc5sc(CC(F)(F)F)cc45)C3)C2)c(Cl)c1` (single isomer, unassigned) [Compound 68] stands 2.24 µM. Same read-out and setting: under `CN(C)CCNC(=O)c1ccc(NC2CC3(CCN(c4ncnc5sc(CC(F)(F)F)cc45)C3)C2)cc1` (single isomer, unassigned) [Compound 74] stands greater than 3.75 µM; under `Nc1nc(N2CCC3(CC(Nc4ccc5oc(=O)[nH]c5c4)C3)C2)c2cc(CC(F)(F)F)sc2n1` (stereo not shown) [Compound 380], greater than 3.75 µM.

Staying with this test, now noted: confluence at day 8, read-out: (3b) Spheroid assay MOLM14 (IC50(μM)) Assay B.
On to `CS(=O)(=O)N1CCN(C(=O)c2ccc(NC3CC4(CCN(c5ncnc6sc(CC(F)(F)F)cc56)C4)C3)cc2)CC1` (single isomer, unassigned) [Compound 179], for which the IC50 is greater than 3.75 µM.

Consider `COC1CCN(C(=O)c2ccc(NC3CC4(CCN(c5ncnc6sc(CC(F)(F)F)cc56)C4)C3)cc2)CC1` (single isomer, unassigned) [Compound 184], for which the IC50 is greater than 3.75 µM. Turning to `CNC(=O)c1ccc(NC2CC3(CCN(c4ncnc5sc(CC(F)(F)F)cc45)C3)C2)cc1C1CCN(C)CC1` (single isomer, unassigned) [Compound 231], the IC50 is greater than 3.75 µM. On the same count and under the same terms, under `CN1CCC(c2cc(NC3CC4(CCN(c5ncnc6sc(CC(F)(F)F)cc56)C4)C3)ccc2C(=O)N2CCOCC2)CC1` (single isomer, unassigned) [Compound 233] stands greater than 3.75 µM; under `CNC(=O)c1c(F)cc(NC2CC3(CCN(c4ncnc5sc(CC(F)(F)F)cc45)C3)C2)cc1F` (single isomer, unassigned) [Compound 244], greater than 3.75 µM; under `O=C(c1cnc(NC2CC3(CCN(c4ncnc5sc(CC(F)(F)F)cc45)C3)C2)nc1)N1CCOCC1` (single isomer, unassigned) [Compound 259], greater than 3.75 µM.

The test system of another test is MV-4-11 cells. The experiment in a line: Proliferation assay A (spheroid assay) MV-4-11. Conditions: Homo sapiens, MV4-11, 192 h, 8 d, AUC of confluence against time, absolute IC50, read-out: (3a) Spheroid assay MV-4-11 (IC50(μM)) Assay A. It is filed as cell-based. As for the experimental part: 3a) Proliferation Assay A
as §1, §2
as §3, with “MOLM14” for “MOLM14 cells”, “monitored” for “measured”, “one image every four hours for 8 d.” for “images at day 8.”
In order to determine the cumulative effect of the test compounds over time, the area under the curve (AUC) in a plot of confluence against time was calculated. Confluence at the beginning of the experiment (t=0) was used as baseline for the AUC calculation.
Absolute IC50 values were calculated according to the following procedure:
% Control=(AUC sample/AUC control)*100
AUC control=mean AUC of control values (cells without compound/DMSO as vehicle control)
A non-linear curve fit was applied using the least squares (ordinary) fit method to the plot of % control versus compound concentration. Based on this, the absolute IC50 value (half maximal inhibitory concentration of the test compound causing an anti-proliferative effect of 50% relative to the vehicle control) was calculated.
On to `FC(F)(F)Cc1cc2c(N3CC[C@]4(CC[C@H](NCc5ccccc5)C4)C3)ncnc2s1` (single isomer, unassigned) [Compound 4], for which the 50% inhibitory concentration (IC50) came to 0.5 µM. The same measure, in the same setting: under `FC(F)(F)Cc1cc2c(N3CC[C@@]4(CC[C@H](NCc5ccccc5)C4)C3)ncnc2s1` (single isomer, unassigned) [Compound 6] stands 1.12 µM; under `CC(C)CNC1CC2(CCN(c3ncnc4sc(CC(F)(F)F)cc34)C2)C1` (stereo not shown) [Compound 50], 0.91 µM.

Another test concerns the target T1, menin.FITC-MBM1 complex (terbium chelate-labeled menin) (Homo sapiens, UniProt O00255, F410E/T541A).
T1 construct: Menin (a.a. 1-610-6×his tag) was labeled with terbium cryptate as follows
T1 sequence (O00255 with tags, fused parts or gaps F410E/T541A): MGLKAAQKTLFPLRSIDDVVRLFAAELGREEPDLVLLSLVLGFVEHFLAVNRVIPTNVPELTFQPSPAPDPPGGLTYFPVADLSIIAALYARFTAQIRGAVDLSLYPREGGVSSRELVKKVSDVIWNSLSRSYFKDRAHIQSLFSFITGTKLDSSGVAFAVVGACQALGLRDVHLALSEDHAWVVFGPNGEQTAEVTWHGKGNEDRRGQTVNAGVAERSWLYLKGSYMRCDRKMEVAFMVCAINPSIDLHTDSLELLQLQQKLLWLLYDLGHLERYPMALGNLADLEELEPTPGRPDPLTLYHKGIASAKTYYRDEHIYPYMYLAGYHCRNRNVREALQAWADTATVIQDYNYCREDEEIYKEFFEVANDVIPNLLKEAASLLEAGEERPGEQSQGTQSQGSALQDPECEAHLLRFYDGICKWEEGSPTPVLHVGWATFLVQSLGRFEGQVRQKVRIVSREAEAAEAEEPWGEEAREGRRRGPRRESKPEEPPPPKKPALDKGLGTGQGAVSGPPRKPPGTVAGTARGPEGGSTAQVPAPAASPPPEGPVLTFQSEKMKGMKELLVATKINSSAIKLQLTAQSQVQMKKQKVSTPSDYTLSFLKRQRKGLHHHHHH
The experiment in a line: Menin/MLL homogenous time-resolved fluorescence (HTRF) assay. It is filed as binding. Conditions: location 1; read-out: (2) location 1 Menin HTRF assay (IC50 (nM)). The procedure: 2) Menin/MLL Homogenous Time-Resolved Fluorescence (HTRF) Assay
To an untreated, white 384-well microtiter plate was added 40 nL 200× test compound in DMSO and 4 μL 2× terbium chelate-labeled menin (vide infra for preparation) in assay buffer (40 mM Tris.HCl, pH 7.5, 50 mM NaCl, 1 mM DTT and 0.05% Plutonic F-127). After incubation of test compound and terbium chelate-labeled menin for 5 min at ambient temperature, 4 μL2× FITC-MBM1 peptide (FITC-β-alanine-[…]-NH2) in assay buffer was added, the microtiter plate centrifuged at 1000 rpm for 1 min and the assay mixtures incubated for 15 min at ambient temperature. The relative amount of menin.FITC-MBM1 complex present in an assay mixture is determined by measuring the homogenous time-resolved fluorescence (HTRF) of the terbium/FITC donor/acceptor fluorphore pair using a BMG Pherastar plate reader (ex. 337 nm/terbium em. 490 nm/FITC em. 520 nm) at ambient temperature. The degree of fluorescence resonance energy transfer (the HTRF value) is expressed as the ratio of the fluorescence emission intensities of the FITC and terbium fluorophores (F^em 520 nm/F^em 490 nm). The final concentrations of reagents in the binding assay are 100 pM terbium chelate-labeled menin (location 1) or 600 pM terbium chelate-labeled menin (location 2), 75 nM FITC-MBM1 peptide and 0.5% DMSO in assay buffer. Dose-response titrations of test compounds are conducted using an 11 point, three-fold serial dilution scheme, starting typically at 25 μM (location 1) or starting typically at 10 μM (location 2).
Compound potencies were determined by first calculating % inhibition at each compound concentration according to equation 1:
% inhibition=((HC−LC)−(HTRF^compound−LC))/(HC−LC))*100 (Eqn 1)
Where LC and HC are the HTRF values of the assay in the presence or absence of a saturating concentration of a compound that competes with FITC-MBM1 for binding to menin, and HTRF^compound is the measured HTRF value in the presence of the test compound. HC and LC HTRF values represent an average of at least 16 replicates per plate.
% inhibition=Bottom+(Top−Bottom)/(1+10^((log IC50−log [cmpd])*h)) (Eqn 2)
Where Bottom and Top are the lower and upper asymptotes of the dose-response curve, respectively, IC50 is the concentration of compound that yields 50% inhibition of signal and h is the Hill coefficient.
Preparation of Terbium cryptate labeling of Menin: Menin (a.a. 1-610-6×his tag) was labeled with terbium cryptate as follows. 2 mg of Menin was buffer exchanged into 1× phosphate buffered saline. 16 uM Menin was incubated with 4-fold molar excess NHS-terbium cryptate (Cisbio Bioassays, Bedford, Mass.) for 2 hours at room temperature. The labeled protein was purified away from free label by running the reaction over a Superdex 200 Increase 10/300 GL column at 0.75 ml/min. Peak fractions were collected, aliquoted and frozen at −80° C.
On the technique in general: In TR-FRET formats the signal depends on donor and acceptor labels being close together.
As to `CC(C)CNC1CC2(CCN(c3ncnc4sc(CC(F)(F)F)cc34)C2)C1` (stereo not shown) [Compound 50], the 50% inhibitory concentration (IC50) worked out at 95.8 nM.

The same test, now with this note: location 2; read-out: (2) location 2 Menin HTRF assay (IC50 (nM)).
As to `CNC(=O)c1ccc(N[C@@H]2CC[C@]3(CCN(c4ncnc5sc(CC(F)(F)F)cc45)C3)C2)cc1` (racemic) [Compound 136], the IC50 was found to be 40.9 nM. On the same count and under the same terms, under `O=c1[nH]c2ccc(CN[C@@H]3CCC4(C3)CN(c3ncnc5sc(CC(F)(F)F)cc35)C4)cc2o1` (single isomer, unassigned) [Compound 55] stands 2 nM; under `CNC(=O)c1ccc(NC2CC3(CCN(c4ncnc5sc(CC(F)(F)F)cc45)C3)C2)c(Cl)c1` (single isomer, unassigned) [Compound 69], 1.2 nM. Still for that read-out and setting: as for `N#Cc1ccc(NC2CC3(CCN(c4ncnc5sc(CC(F)(F)F)cc45)C3)C2)nc1` (single isomer, unassigned) [Compound 174], the figure is 114 nM; as for `O=S(=O)(NC1CC2(CCN(c3ncnc4sc(CC(F)(F)F)cc34)C2)C1)c1ccccc1` (stereo not shown) [Compound 23], 1310 nM. Same read-out and setting: as for `FC(F)(F)Cc1cc2c(N3CC4(CCC(Nc5ccc(-c6cn[nH]c6)cc5)C4)C3)ncnc2s1` (stereo not shown) [Compound 302], the figure is 50.9 nM; as for `CNS(=O)(=O)c1ccc(NC2CC3(CCN(c4ncnc5sc(CC(F)(F)F)cc45)C3)C2)cc1` (stereo not shown) [Compound 317], 143 nM; as for `O=c1[nH]c2ccc(NC3CC4(CCN(c5ncnc6sc(CC(F)(F)F)cc56)C4)C3)cc2[nH]1` (stereo not shown) [Compound 321], 91.5 nM. As for `Nc1nc(N2CCC3(CC(Nc4ccc5oc(=O)[nH]c5c4)C3)C2)c2cc(CC(F)(F)F)sc2n1` (stereo not shown) [Compound 380], the IC50 was 8.7 nM.

(Values after patent US20230039917A1, “EXO-AZA SPIRO INHIBITORS OF MENIN-MLL INTERACTION” (Janssen Pharmaceutica NV, priority 2017, published 2023).)
